Experimental data as given in US11906523B2, “Signaling conjugates and methods of use” (VENTANA MEDICAL SYSTEMS, INC., priority 2012, dated 2024).

How the values were obtained:
[1] = UV-Vis absorbance spectra of signaling conjugates and chromophores; format: physicochemical
Source text: The wavelength at which the maximum fraction of light is absorbed by a substance is referred to as λmax. Because this wavelength is absorbed to the greatest extent, it is typically referred to as the absorbance wavelength. […] While λmax designates the wavelength of maximum absorption, the FWHM designates the breadth of the spectral absorbance.
Trace A corresponds to the signaling conjugate used for FIG. 15(A) and trace B corresponds to the signaling conjugated used for FIG. 15(B); note that each signaling conjugate was analyzed with spectrometry in solution prior to staining and on the slide subsequent to having detected the HER2 (the dashed traces representing the spectra obtained on the tissue).

[2] = UV-Vis spectra of fast red and fast blue; format: physicochemical; conditions: ethyl acetate solutions, FIG. 8(B)
Source text: While providing a range of new colors for the recognition of targets within biological samples is useful alone, the presently disclosed signaling conjugates are particularly useful in multiplexed assays, as well as assays using translocation probes. FIG. 8(A) is a photomicrograph of a dual stain of two gene probes on section of lung tissue testing for ALK rearrangements associated with non-small cell lung cancer. FIG. 8(B) illustrates UV-Vis spectra of fast red and fast blue in ethyl acetate solutions. The 3′ probe was detected using fast red and the 5′ probe was detected using fast blue. FIGS. 9(A) and 9(B) illustrate the traces of FIG. 8(B) separately. […] Comparing this range to the color wheel, the expected color corresponding to the spectral absorption characteristic would be either red or orange. The range of absorption is so large it essentially covers all of those wavelengths one would expect to result in a red or an orange color. […] Again, referring to the color wheel in FIG. 6(A), the absorption from 525-625 nm covers nearly half of the color wheel with blue, indigo, and violet being complementary.

[3] = absorption spectrum of signaling conjugate

In the case of `CN(C)c1ccc2c(-c3ccc(C(=O)NCCc4ccc(O)cc4)cc3C(=O)[O-])c3ccc(N(C)C)cc3[o+]c2c1` [5-TAMRA-tyramide conjugate], the “full width of the peak at the half maximum absorbance (FWHM)” value [1, 3] is reported as “approximately 40 nm” and the λmax [1, 3] is reported as 552 nm.

For `O=C([O-])C1=NN(c2ccc(S(=O)(=O)[O-])cc2)C(=O)C1N=Nc1ccc(S(=O)(=O)[O-])cc1.[Na+].[Na+].[Na+]` (stereo not shown) [Tartrazine], the λmax ([1]; diazo chromophore moiety itself) was “about 427 nm”.

In the case of Fast blue, the “strong absorption wavelength range” value [2] is reported as 525-625 nm.
